Test results taken from patent publication US20100063047A1 (KALYPSYS, INC., priority 2008, published 2010).

Experiments:
human H4 = molecular target: T1, human H4 (Homo sapiens, UniProt Q9H3N8); experiment: In vitro histamine H4 receptor cell-based aequorin bioluminescence antagonist assay; conditions: CHO-K1 cells expressing human H4, aequorin and Gα16; histamine at EC80
T1 construct: host or cells: CHO-K1, also expressing mitochondrion-targeted aequorin and human Gα16
How it was run: (§1)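 CHO-K1 cells stably expressing human H1 or H4 plus mitochondrial aequorin (H4 also with Gα16), loaded with 5 μM coelenterazine-h for 4 h at ~21 °C. Compounds preincubated 15 min at room temperature, then histamine at EC80 added.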

human H1 = molecular target: T2, human H1 (Homo sapiens, UniProt P35367); experiment: In vitro histamine H1 receptor cell-based aequorin bioluminescence antagonist assay; conditions: CHO-K1 cells expressing human H1 and aequorin; histamine at EC80; read-out: H1 Antagonist EC50
T2 construct: host or cells: CHO-K1, also expressing mitochondrion-targeted aequorin
How it was run: as §1

T2 sequence (P35367 whole entry): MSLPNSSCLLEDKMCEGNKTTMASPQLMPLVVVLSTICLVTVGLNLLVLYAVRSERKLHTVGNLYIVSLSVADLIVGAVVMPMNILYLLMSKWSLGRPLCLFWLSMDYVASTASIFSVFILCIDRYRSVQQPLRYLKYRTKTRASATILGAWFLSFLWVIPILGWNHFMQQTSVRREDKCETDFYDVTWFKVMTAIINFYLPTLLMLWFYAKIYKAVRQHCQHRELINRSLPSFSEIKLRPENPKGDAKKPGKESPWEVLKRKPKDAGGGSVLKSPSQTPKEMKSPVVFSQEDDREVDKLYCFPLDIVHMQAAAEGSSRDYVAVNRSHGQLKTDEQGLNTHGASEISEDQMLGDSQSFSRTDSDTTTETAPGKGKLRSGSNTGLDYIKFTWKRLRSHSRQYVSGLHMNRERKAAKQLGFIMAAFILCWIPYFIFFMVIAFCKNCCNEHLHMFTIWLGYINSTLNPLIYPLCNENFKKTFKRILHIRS

Row | EC50 (human H4) [µM] | EC50 (human H1) [µM] | SMILES
1 | > 10 | > 10 | Cc1csc2ncnc(N(C)CC(O)c3ccccc3)c12 (centres unmarked) [Example 227, 2-[methyl({5-methylthieno[2,3-d]pyrimidin-4-yl})amino]-1-phenylethan-1-ol]
2 | > 10 | > 10 | Cc1csc2ncnc(N(C)Cc3ccccc3)c12 [Example 209, N-benzyl-N,5-dimethylthieno[2,3-d]pyrimidin-4-amine]
3 | > 10 | > 10 | CCCCN(CC)c1ncnc2scc(C)c12 [Example 195, N-butyl-N-ethyl-5-methylthieno[2,3-d]pyrimidin-4-amine]
4 | > 10 | > 10 | Cc1csc2ncnc(N(C)CC(O)c3ccc(O)cc3)c12 (centres unmarked) [Example 238, 4-{1-hydroxy-2-[methyl({5-methylthieno[2,3-d]pyrimidin-4-yl})amino]ethyl}phenol]
5 | > 10 | > 10 | Cc1csc2ncnc(NCCO)c12 [Example 56, 2-({5-methylthieno[2,3-d]pyrimidin-4-yl}amino)ethan-1-ol]
6 | > 10 | > 10 | Cc1csc2ncnc(N(C)Cc3cccc4ccccc34)c12 [Example 274, N,5-dimethyl-N-(naphthalen-1-ylmethyl)thieno[2,3-d]pyrimidin-4-amine]
7 | > 10 | > 10 | Cc1csc2ncnc(N(C)CCC#N)c12 [Example 184, 3-[methyl({5-methylthieno[2,3-d]pyrimidin-4-yl})amino]propanenitrile]
8 | > 10 | > 10 | Cc1csc2ncnc(NCCN)c12 [Example 55, N-(2-aminoethyl)-5-methylthieno[2,3-d]pyrimidin-4-amine]

Second part, the molecule before the results:

Row | SMILES | EC50 (human H4) [µM] | EC50 (human H1) [µM]
9 | Cc1csc2ncnc(N3CCN(c4ccc(O)cc4)CC3)c12 [Example 243, 4-(4-{5-methylthieno[2,3-d]pyrimidin-4-yl}piperazin-1-yl)phenol] | > 10 | > 10
10 | Cc1csc2ncnc(N3Cc4ccccc4C3)c12 [Example 208, 2-{5-methylthieno[2,3-d]pyrimidin-4-yl}-2,3-dihydro-1H-isoindole] | > 10 | > 10
11 | Cc1csc2ncnc(NCCN3CCOCC3)c12 [Example 109, 5-methyl-N-[2-(morpholin-4-yl)ethyl]thieno[2,3-d]pyrimidin-4-amine] | > 10 | > 10
12 | COc1ccc(Nc2ncnc3scc(C)c23)cc1OC [Example 147, N-(3,4-dimethoxyphenyl)-5-methylthieno[2,3-d]pyrimidin-4-amine] | > 10 | > 10
13 | Cc1csc2ncnc(NN3CCN(C)CC3)c12 [Example 93, 4-methyl-N-{5-methylthieno[2,3-d]pyrimidin-4-yl}piperazin-1-amine] | > 10 | > 10
14 | Cc1csc2ncnc(N3CCN(c4ccc(C(F)(F)F)cn4)CC3)c12 [Example 2, 5-methyl-4-(4-(5-(trifluoromethyl)pyridin-2-yl)piperazin-1-yl)thieno[2,3-d]pyrimidine] | > 10 | > 10
15 | Cc1csc2ncnc(NCCCO)c12 [Example 62, 3-({5-methylthieno[2,3-d]pyrimidin-4-yl}amino)propan-1-ol] | > 10 | > 10
16 | CCOC(=O)N1CCN(c2ncnc3scc(C)c23)CC1 [Example 230] | > 10 | > 10
17 | Cc1csc2ncnc(N3CCCC(C(N)=O)C3)c12 (centres unmarked) [Example 213, 1-{5-methylthieno[2,3-d]pyrimidin-4-yl}piperidine-3-carboxamide] | > 10 | > 10
18 | Cc1csc2ncnc(N3CC(C)CC(C)C3)c12 (centres unmarked) [Example 199, 3,5-dimethyl-1-{5-methylthieno[2,3-d]pyrimidin-4-yl}piperidine] | > 10 | > 10
19 | Cc1csc2ncnc(N3CCN(c4ccccc4Cl)CC3)c12 [Example 3, 4-(4-(2-chlorophenyl)piperazin-1-yl)-5-methylthieno[2,3-d]pyrimidine] | > 10 | > 10
